# Experimental data from patent US10040802B2, “Thienopyrazine inhibitors of IRAK4 activity” (MERCK SHARP & DOHME CORP., priority 2015, dated 2018).
# Counter-ions that a name gives are not always drawn.
# Molecular target: GST tagged IRAK4 (Homo sapiens (Human), UniProt Q9NWZ3)
# Experiment: IRAK4 Kinase Assay (IMAP fluorescence polarization)
# Format: biochemical
# Conditions: 0.5 nM GST tagged IRAK4, 100 μM ATP, 30 minutes at 25° C.
# Experimental: The kinase activity of IRAK4 is determined by its ability to catalyze the phosphorylation of a fluorescent polypeptide substrate. The extent of phosphorylation is measured using the IMAP technology (Molecular Devices) where the phosphorylated fluorescent substrate binds to the large M(III)-based nanoparticles which reduces the rotational speed of the substrate and thus increases its fluorescent polarization (FP).
# 20 μL reaction mixture contains 10 mM TriHCl, pH 7.2, 0.5 nM GST tagged IRAK4 (SignalChem), 100 nM fluorescent peptide substrate (RP7030, Molecular Devices), 100 μM ATP, 1 mM DDT, 1 mM MgCl2, and 0.01% Tween 20. The reaction is initiated by the addition of ATP. After incubation for 30 minutes at 25° C., 60 μL of Progressive IMAP Reagent (Molecular Devices) is added to stop the reaction. Change in RP7030's FP is determined by a FP reader (Analyst HT, LJL BioSystems).
# Chain of GST tagged IRAK4 (Q9NWZ3 whole entry): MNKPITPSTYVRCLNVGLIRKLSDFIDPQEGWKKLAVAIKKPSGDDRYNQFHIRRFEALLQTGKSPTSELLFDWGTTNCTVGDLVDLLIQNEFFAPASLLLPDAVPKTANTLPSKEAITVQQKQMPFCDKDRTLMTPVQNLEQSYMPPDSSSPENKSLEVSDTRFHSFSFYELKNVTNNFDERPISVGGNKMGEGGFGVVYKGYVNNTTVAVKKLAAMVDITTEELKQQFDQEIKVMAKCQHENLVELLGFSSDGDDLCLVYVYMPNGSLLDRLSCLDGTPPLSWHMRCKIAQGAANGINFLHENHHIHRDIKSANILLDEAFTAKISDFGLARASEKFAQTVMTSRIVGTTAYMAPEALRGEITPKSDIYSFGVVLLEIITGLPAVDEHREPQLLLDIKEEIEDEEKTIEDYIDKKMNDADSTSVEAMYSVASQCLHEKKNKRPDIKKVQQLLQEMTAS
row,Compound,IC50 [nM]
1,"Cn1cc(NC(=O)c2csc3ncc(N4C[C@@H]5CC[C@H]4CN5)nc23)c(C(F)F)n1 (single isomer, unassigned) [Example 22, 2-[(1S,4S)- or (1R,4R)-2,5-diazabicyclo[2.2.2]oct-2-yl]-N-[3-(difluoromethyl)-1-methyl-1H-pyrazol-4-yl]thieno[2,3-b] pyrazine-7-carboxamide trifluoroacetate]",7
2,"Cn1cc(NC(=O)c2csc3ncc(N4C[C@H]5CC[C@@H]4CN5)nc23)c(C(F)F)n1 (single isomer, unassigned) [Example 23, 2-[(1S,4S)- or (1R,4R)-2,5-diazabicyclo[2.2.2]oct-2-yl]-N-[3-(difluoromethyl)-1-methyl-1H-pyrazol-4-yl]thieno[2,3-b] pyrazine-7-carboxamide trifluoroacetate]",1
3,"Cn1cc(NC(=O)c2csc3ncc(N4C[C@@H]5CC[C@H]4CN5)nc23)c(C#N)n1 (single isomer, unassigned) [Example 26, N-(3-cyano-1-methyl-1H-pyrazol-4-yl)-2-[(1S,4S)- or (1R,4R)-2,5-diazabicyclo[2.2.2]oct-2-yl]thieno[2,3-b] pyrazine-7-carboxamide trifluoroacetate]",46
4,"Cn1cc(NC(=O)c2csc3ncc(N[C@H]4CCCCNC4)nc23)c(C(F)(F)F)n1 (single isomer, unassigned) [Example 31, 2-[(3S)- or (3R)-azepan-3-ylamino]-N-[1-methyl-3-(trifluoromethyl)-1H-pyrazol-4-yl] thieno[2,3-b] pyrazine-7-carboxamide trifluoroacetate]",7
5,"Cn1cc(NC(=O)c2csc3ncc(N[C@@H]4CCCCNC4)nc23)c(C(F)F)n1 (single isomer, unassigned) [Example 33, 2-[(3S)- or (3R)-azepan-3-ylamino]-N-[3-(difluoromethyl)-1-methyl-1H-pyrazol-4-yl]thieno[2,3-b] pyrazine-7-carboxamide trifluoroacetate]",0.2

# The remaining lines, values ahead:
row,IC50 [nM],Compound
1,73,"Cn1cc(NC(=O)c2csc3ncc(N4C[C@@H]5CC[C@H]4CN5)nc23)c(Cl)n1 (single isomer, unassigned) [Example 16, N-(3-chloro-1-methyl-1H-pyrazol-4-yl)-2-[(1S,4S)- or (1R,4R)-2,5-diazabicyclo[2.2.2]oct-2-yl]thieno[2,3-b] pyrazine-7-carboxamide trifluoroacetate]"
2,15,"Cn1cc(NC(=O)c2csc3ncc(N4C[C@H]5CC[C@@H]4CN5)nc23)c(Cl)n1 (single isomer, unassigned) [Example 17, N-(3-chloro-1-methyl-1H-pyrazol-4-yl)-2-[(1S,4S)- or (1R,4R)-2,5-diazabicyclo[2.2.2]oct-2-yl]thieno[2,3-b] pyrazine-7-carboxamide trifluoroacetate]"
3,70,"Cn1cc(NC(=O)c2csc3ncc(N4C[C@@H]5CC[C@H]4CN5)nc23)c(Br)n1 (single isomer, unassigned) [Example 19, N-(3-bromo-1-methyl-1H-pyrazol-4-yl)-2-[(1S,4S)- or (1R,4R)-2,5-diazabicyclo[2.2.2]oct-2-yl]thieno[2,3-b] pyrazine-7-carboxamide trifluoroacetate]"
4,19,"Cn1cc(NC(=O)c2csc3ncc(N4C[C@H]5CC[C@@H]4CN5)nc23)c(Br)n1 (single isomer, unassigned) [Example 20, N-(3-bromo-1-methyl-1H-pyrazol-4-yl)-2-[(1S,4S)- or (1R,4R)-2,5-diazabicyclo[2.2.2]oct-2-yl]thieno[2,3-b] pyrazine-7-carboxamide trifluoroacetate]"
5,37,"Cn1cc(NC(=O)c2csc3ncc(N4C[C@H]5CC[C@@H]4CN5)nc23)c(C#N)n1 (single isomer, unassigned) [Example 27, N-(3-cyano-1-methyl-1H-pyrazol-4-yl)-2-[(1S,4S)- or (1R,4R)-2,5-diazabicyclo[2.2.2]oct-2-yl]thieno[2,3-b] pyrazine-7-carboxamide trifluoroacetate]"
